# From patent US20070232577A1, “Synthetic pentacyclic triterpenoids and derivatives of betulinic acid and betulin” (Advanced Life Sciences, Inc., priority 2006, published 2007)
# Experiments:
# SK-MEL-2 (melanoma) [1] = system: SK-MEL-2 (melanoma)
# Protocol: (§2) Cells were plated, the evening before treatment, for each treatment on 96-well plates (1×10^4 cells/well) in 100 μL volume per well. Drug solutions were prepared by diluting each test compound in DSMO (10 mM) with the appropriate cell growth media for each individual cell line, or in “Universal Media” if several cell lines were to be assayed in parallel, immediately prior to cell treatment. Universal Media consisted of 5 mL sodium pyruvate (100×liquid stock, CellGro), 5 mL glucose (100×, 45% liquid stock, CellGro), 5 mL Penicillin/Streptomycin (100×liquid stock, CellGro), 10 mL sodium bicarbonate (50×liquid stock, CellGro), 25 mL Fetal Calf Serum, 1.25 mL insulin (4 mg/mL, Gibco) and 449 mL RPMI media with 2 mM glutamine for a total volume of 500 mL. Cells were treated by aspirating media from each well and adding 80 μL of each drug solution to the attached cells. All treatments were performed in triplicate. Growth media (80 μL) were added to 3 blank wells (no cells) to measure background from the growth media Growth media alone (no DMSO or test compond) was added to 2 wells containing cells to measure the baseline MTS activity and vehicle (DMSO) control solutions were also included to monitor basal toxicity from DMSO. Cells were incubated at 37° C. for 72 h. MTS reagent (per 96-well plate) were prepared by combining 2 mL of MTS working solution (Cell Titer AQueous Non-Radioactive Cell Proliferation Assay, Promega, cat#G1112), 100 μL of 0.92 mg/mL phenazine methosulfate/Dulbecco's PBS and 2.1 mL growth media. MTS reagent (40 μL) were added to each well and incubated at 37° C. for 1.5 to 4 h. Plates were gently shaken by hand until solution in each well appeared homogenous. Absorbances at 490 nm were measured on a plate reader at multiple time points following the addition of MTS reagent for each plate. Triplicate absorbance (490 nm) measurements were averaged following background (no cell) subtraction for each drug concentration. Percent Cell Viability was calculated for each drug concentration using the following equation: {[Absorbances(drug treated)]/[Absorbances(DMSO treated)]}×100%
# (§3) Percent viability (y-axis) was plotted against drug concentration (x-axis) and the resulting graph was used to determine the 50% inhibitory concentration (IC50) for each drug.
# [2] = system: SK-MEL-2, A-375, Daoy, LN-229, OVCAR-3, HT-29, MCF-7 cell lines; format: cell-based
# Protocol: (§1) All treatments were performed in triplicate. […] Cells were incubated at 37° C. for 72 h.
# SK-MEL-2 cells = assay: Caspase activation assay, SK-MEL-2; format: cell-based; details: for caspase activating property compared with betulinic acid (1): SK-MEL-2, 5, 15, 50 μM, 2-24 h, absence of FBS
# Protocol: All treatments were performed in duplicate. […] Cells were incubated at 37° C. for 8 h. Caspase assay reagent (per 96-well plate) was prepared according to manufacturer's instructions (Homogeneous Caspases Assay, fluorometric, Roche) by combining 6.3 mL Incubation Buffer with 0.7 mL of Substrate Stock Solution. Caspase assay reagent (70 μL) was added to each well; the plate was gently shaken by hand for 15-20 seconds and incubated at 37° C. for 4 h.
# Fluorescent emission was measured at 535 nm on a plate reader using the “homogeneous caspase” program (excitation Wavelength=490 nm, emission wavelength=535 nm). Duplicate wells for each treatment were averaged following background (no cells) subtraction (emission 535 nm value from all experimental emission 535 nm values) for each drug concentration.
# DMSO treatment represented baseline caspase activation in the absence of drug. The percent changes in caspase activity were plotted on the y-axis for each drug treatment.
# Caspase activation assays were conducted to further characterize the mode of cell death. A treatment time and dose at which maximum caspase activation was observed prior to massive cell destruction would be indicative of apoptosis induction. SK-MEL-2 cells were treated with 5, 15, and 50 μM of the compound for 2, 4, 6, 8, 16, and 24 h in the absence of FBS (Fetal Bovine Serum).
# Daoy (glioblastoma) = assay: MTS cell viability assay, Daoy; details: Homo sapiens, Daoy, 72 h, read-out: IC50 Daoy
# Protocol: as §2, §3
# SK-MEL-2 (melanoma) [3] = assay: MTS cell viability assay, SK-MEL-2; details: Homo sapiens, SK-MEL-2, 72 h, read-out: IC50 SK-MEL-2
# Protocol: as §2, §3
# SK-MEL-2 = assay: Annexin-V assay (apoptosis versus necrosis); format: cell-based; details: for selective apoptosis and dose dependence (in words): cell line not stated, above optimal dose cellular damage and non-apoptotic cell death
# Protocol: Cells were plated (8.75×10^5 cells/6 cm. diameter tissue culture plates), the evening before treatment, in 4 mL volume per plate. This cell density is equivalent to the cell density used in the MTS and Caspase assays (1×10^4 cells/well (96-well plate). Drug solutions were prepared, immediately prior to cell treatment, in the same as described for caspase assay
# Growth media alone (no DMSO or drug) was added to a plate containing cells to measure the baseline-Annexin-V reactivity and vehicle (DMSO) alone control solutions were also prepared to monitor Annexin-V reactivity from DMSO. Cells were incubated at 37° C. for 8 h. Growth media (3 mL) was removed from each plate and added to a 15 mL conical tube containing 0.333 mL FCS (final FCS concentration of 10%). The media was saved to include any apoptotic/dead cells that may have detached from the plate during drug treatment. FCS was added to the media to prevent further cell damage and improve the efficiency of cell pelleting during subsequent centrifugation steps (empirical observation). Adherent cells were rinsed once with PBS and 1 mL of trypsin was added. Plates were rotated several times to assure coating of the entire surface with trypsin which was then removed. Plates were incubated at 37° C. for 4-5 min. Trypsinized cells were re-suspended in the saved media for each sample. Cell suspension was placed back into 15 mL tubes, which were then cooled on ice. Cells were re-suspended by pipetting 7-8 times. The tubes were centrifuged at 130×g for 5 min at 4° C. The resulting cell pellets were re-suspended in the ice cold 1 mL of 1× Nexin Buffer (Guava Nexin kit, Guava Technologies) and transferred to 1.5 mL conical microcentrifuge tubes to rinse cells with residual growth media. This procedure was repeated by centrifugation of cells at 130×g for 5 min, at 4° C. Re-suspension of the resulting cell pellet in 50 μL Nexin Staining Solution (Guava Nexin kit, Guava Technologies) was followed by incubation on ice, in the dark, for 20 min. Guava Samples were analyzed immediately on the Guava flow cytometer, using the Guava Nexin software package (see Guava user's manual and Guava Nexin kit protocol on data acquisition and analysis protocols).
# HT-29 (colon carcinoma) = assay: MTS cell viability assay, HT-29; format: cell-based; details: Homo sapiens, 72 h
# Protocol: as §1
# LN-229 (glioblastoma) = assay: MTS cell viability assay, LN-229; format: cell-based; details: Homo sapiens, 72 h
# Protocol: as §1
# [4] = system: OVCAR-3 (ovarian carcinoma); assay: MTS cell viability assay, OVCAR-3; format: cell-based; details: Homo sapiens, 72 h
# Protocol: as §1
# A-375 (melanoma) = assay: MTS cell viability assay, A-375; format: cell-based; details: Homo sapiens, 72 h
# Protocol: as §1
# MCF-7 (breast carcinoma) = assay: MTS cell viability assay, MCF-7; format: cell-based; details: Homo sapiens, MCF7, 72 h
# Protocol: as §1
Structure (SMILES),improvement in cytotoxicity relative to betulinic acid 1 in SK-MEL-2 (SK-MEL-2 (melanoma) [1]),cytotoxic potency across the cell line panel (in words) [2],caspase activating property compared with betulinic acid (1) (SK-MEL-2 cells),IC50 (Daoy (glioblastoma)) [µg/mL],IC50 (SK-MEL-2 (melanoma) [3]) [µg/mL],selective apoptosis and dose dependence (in words) (SK-MEL-2),IC50 (HT-29 (colon carcinoma)) [µg/mL],IC50 (LN-229 (glioblastoma)) [µg/mL],IC50 [4] [µg/mL],IC50 (A-375 (melanoma)) [µg/mL],IC50 (MCF-7 (breast carcinoma)) [µg/mL],caspase activation in SK-MEL-2 (in words) (SK-MEL-2 cells),apoptosis versus necrosis by the Annexin assay (in words) (SK-MEL-2; SK-MEL-2),"rank as apoptosis inducer within the collection (in words) (SK-MEL-2; caspase and Annexin assays, SK-MEL-2)"
"C=C(C)[C@@H]1CC[C@]2(C(=O)O)CC[C@]3(C)[C@H](CC[C@@H]4[C@@]5(C)CC[C@H](OC(=O)/C=C/c6ccc(OC(C)=O)c(OC(C)=O)c6)C(C)(C)[C@@H]5CC[C@]43C)[C@@H]12 [Compound 24, (1R,3aS,5aR,5bR,7aR,9S,11aR,11bR,13aR, 13bR)-9-((E)-3-(3,4-diacetoxyphenyl)acryloyloxy)-5a,5b,8,8,11a-pentamethyl-1-(prop-1-en-2-yl)icosahydro-1H-cyclopenta[a]chrysene-3a-carboxylic acid]",greater than 5 fold,–,–,–,–,–,–,–,–,–,–,–,–,–
"C=C(C)[C@@H]1CC[C@]2(COC3CCCCO3)CC[C@]3(C)[C@H](CC[C@@H]4[C@@]5(C)CC6=C(ON(O)C6)C(C)(C)[C@@H]5CC[C@]43C)[C@@H]12 (stereo partly drawn) [Compound 32, (1R,3aS,5aR,5bR,7aR,12aR,12bR,14aR,14bR)-1-isopropenyl-5a,5b,8,8,12a-pentamethyl-3a-[(tetrahydro-2H-pyran-2-yloxy)methyl]-1,2,3,3a,4,5,5a,5b,6,7,7a,8,11,12,12a,12b,13,14, 14a,14b-icosahydro-10H-cyclopenta[7,8]chryseno[3,2-d]isoxazol-10-ol]",–,potent across the entire cell line panel,more robust caspase activating property than betulinic acid,6,5,induced selective apoptosis at an optimal dose,8,6,6,6,6,–,–,–
"C=C(C)[C@@H]1CC[C@]2(CO)CC[C@]3(C)[C@H](CC[C@@H]4[C@@]5(C)CC6=C(ON(O)C6)C(C)(C)[C@@H]5CC[C@]43C)[C@@H]12 [Compound 33, (1R,3aS,5aR,5bR,7aR,12aR,12bR,14aR,14bR)-3a-(hydroxymethyl)-1-isopropenyl-5a,5b,8,8,12a-pentamethyl-1,2,3,3a,4,5,5a,5b,6,7,7a,8,11,12,12a,12b,13,14, 14a,14b-icosahydro-10H-cyclopenta[7,8]chryseno[3,2-d]isoxazol-10-ol]",–,–,–,–,–,–,–,–,–,–,–,induced caspase activation,–,–
"C=C(C)[C@@H]1CC[C@]2(CO)CC[C@]3(C)[C@H](CC[C@@H]4[C@@]5(C)C=C(C#N)C(=O)C(C)(C)[C@@H]5CC[C@]43C)[C@@H]12 [Compound 38, (1R,3aS,5aR,5bR,7aR,11aR,11bR,13aR,13bR)-3a-(hydroxymethyl)-5a,5b,8,8,11a-pentamethyl-9-oxo-1-(prop-1-en-2-yl)-2,3,3a,4,5,5a,5b,6,7,7a, 8,9,11a,11b,12,13,13a,13b-octadecahydro-1H-cyclopenta[a]chrysene-10-carbonitrile]",–,potent across the entire cell line panel,more robust caspase activating property than betulinic acid,8,6,–,8,6,7,6,–,activated caspases,inducing apoptosis over necrosis robustly,most potent apoptosis inducer
"C=C(C)[C@@H]1CC[C@]2(COC(=O)CBr)CC[C@]3(C)[C@H](CC[C@@H]4[C@@]5(C)C=C(C#N)C(=O)C(C)(C)[C@@H]5CC[C@]43C)[C@@H]12 [Compound 39, ((1R,3aS,5aR,5bR,7aR,11aR,11bR,13aR,13bR)-10-cyano-5a,5b,8,8,11a-pentamethyl-9-oxo-1-(prop-1-en-2-yl)-2,3,3a,4,5,5a,5b,6,7,7a,8,9,11a,11b,12,13,13a,13b-octadecahydro-1H-cyclopenta[a]chrysen-3a-yl)methyl 2-bromoacetate]",–,–,–,< 2,20,–,6,7,7,4,13,induced caspase activation,–,–
"C=C(C)[C@@H]1CC[C@]2(CO)CC[C@]3(C)[C@H](CC[C@@H]4[C@@]5(C)CCC(NCCc6ccc(O)cc6)C(C)(C)[C@@H]5CC[C@]43C)[C@@H]12 (stereo partly drawn) [Compound 75, 4-(2-((1R,3aS,5aR,5bR,7aR,11aR,11bR,13aR,13bR)-3a-(hydroxymethyl)-5a,5b,8,8,11a-pentamethyl-1-(prop-1-en-2-yl)icosahydro-1H-cyclopenta[a]chrysen-9-ylamino)ethyl)phenol]",–,–,more robust caspase activating property than betulinic acid,–,–,induced selective apoptosis at an optimal dose,–,–,–,–,–,–,–,–
"C=C(C)[C@@H]1CC[C@]2(C(=O)O)CC[C@]3(C)[C@H](CC[C@@H]4[C@@]5(C)CCC(NCCNC(=O)OC(C)(C)C)C(C)(C)[C@@H]5CC[C@]43C)[C@@H]12 (stereo partly drawn) [Compound 79, (1R,3aS,5aR,5bR,7aR,11aR,11bR,13aR,13bR)-9-(2-(tert-butoxycarbonylamino)ethylamino)-5a,5b,8,8,11a-pentamethyl-1-(prop-1-en-2-yl)icosahydro-1H-cyclopenta[a]chrysene-3a-carboxylic acid]",–,–,–,–,–,induced selective apoptosis at an optimal dose,–,–,–,–,–,–,–,–
"C=C(C)[C@@H]1CC[C@]2(C(=O)O)CC[C@]3(C)[C@H](CC[C@@H]4[C@@]5(C)CC[C@H](NCCc6ccc(O)cc6)C(C)(C)[C@@H]5CC[C@]43C)[C@@H]12 [Compound 82, (1R,3aS,5aR,5bR,7aR,9S,11aR,11bR,13aR,13bR)-9-(4-hydroxyphenethylamino)-5a,5b,8,8,11a-pentamethyl-1-(prop-1-en-2-yl)icosahydro-1H-cyclopenta[a]chrysene-3a-carboxylic acid]",–,potent across the entire cell line panel,–,5,5,–,4,5,6,5,6,–,–,–
"CC(C)[C@@H]1CC[C@]2(C(=O)O)CC[C@]3(C)[C@H](CC[C@@H]4[C@@]5(C)CC[C@H](N)C(C)(C)[C@@H]5CC[C@]43C)[C@@H]12 [Compound 86, (1S,3aS,5aR,5bR,7aR,9S,11aR,11bR,13aR,13bR)-9-amino-1-isopropyl-5a,5b,8,8,11a-pentamethylicosahydro-1H-cyclopenta[a]chrysene-3a-carboxylic acid]",–,potent across the entire cell line panel,–,6,6,–,5,5,6,5,6,–,–,–
